Measurements as given in US20040191842A1, “Chemopreventive and therapeutic aspects of polyphenolic compositions and assays” (Medical College of Georgia Research Institute, Inc., priority 2002, published 2004).

Assays:
Apaf-1 = assay: Western blot of Apaf-1 in epidermal keratinocytes; type: cell-based, human; conditions: increasing concentrations of EGCG
Experimental: Western blot analysis. The keratinocytes and the mammary epithelial cells were placed in KGM-2 and MEGM, respectively, overnight prior to treatment. Cells were lysed, after 24-hour treatment, in RIPA buffer (1% NP-40, 1% sodium deoxycholate, 0.1% SDS, 0.15 M NaCl, 0.01 M sodium phosphate, pH 7.2, and 1% Trasylol) containing proteinase inhibitors (1 mM PMSF, 1 μg/ml each of aprotinin, leupeptin, and pepstatin). The concentration of protein in each sample was determined using the BioRad DC Protein Assay and spectrophotometry. 50 μg of protein from each sample and a BioRad molecular weight standard marker were run on a 10% SDS-PAGE, followed by transfer to nitrocellulose membranes. Nonspecific binding to the membranes was blocked with 10% nonfat milk. Primary polyclonal (rabbit) antibodies and a horseradish peroxidase-conjugated goat anti-rabbit secondary antibody were used in conjunction with the ECL Chemiluminescence Kit (Amersham Pharmacia Biotech, New Jersey) and membranes were exposed to radiographic films for detection. Western blots were digitized for comparison of the intensity for each band using the ImageTool image analysis software program (University of Texas Health Science Center, San Antonio, Tex.). The integrated density of each band was measured using identical 1480 pixel areas of each Apfa-1 or Actin band at a scale of densities from 0 to 255. […]

caspase 14 = assay: Immunoblot of caspase 14 protein in NHEK; type: cell-based, human
Experimental: (§1) To identify additional factors those suppress EGCG -induced apoptosis and facilitate cell differentiation in NHEK, exponentially growing NHEK (Cambrex, Baltimore, Md.) were exposed to 100 μM EGCG for 0, 2, 6 and 24 hours, prior to total RNA isolation using the Qiagen RNeasy mini kit (Valencia, Calif.), which was followed by RT-PCR labeling and hybridization with the Human Apoptosis Macroarray membrane (Sigma-Genosys, The Woodlands, Tex.). Total cell lysates also were collected following a variety of EGCG treatments. The protein levels for caspase 14 and p21 were determined by immuno-blotting using antibodies specific for caspase 14 and p21 (Santa Cruz Biotechnology, Santa Cruz, Calif.).

OSC-2 cells = assay: MTT assay (mitochondrial SDH activity), OSC2 (OSC-2) cells; conditions: increasing EGCG and 0.2 mg/ml GTPPs, 24 hour
Experimental: This method detects the activity of mitochondrial succinate dehydrogenase (SDH). In a 96-well plate, 1.5×10^4 cells were seeded in each well. After variety of treatments, 100 μl of 2% MTT was added to each well and the plate was incubated at 37° C. for 30 minutes. 100 μl of 0.2 M Tris (pH 7.7) with 4% formalin was added to each well. After incubation at room temperature for 5 minutes, liquid was removed and the wells were allowed to dry. Each well was rinsed with 200 μl water followed by addition of 100 μl DMSO (6.35% 0.1 N NaOH in DMSO) to each well. The coloration was measured by a Thermo MAX microplate reader (Molecular Devices Corp. Sunnyvale, Calif. using wavelengths of 562 nm. Experiments were repeated three times with triplicate samples for each experiment.
This method directly detects the activity of mitochondrial succinate dehydrogenase (SDH). Changes in SDH activity is a measurement of cell viability when stress is introduced in cell culture through chemical or physical means. Cells (1.5×10^4 cells/well) were seeded in a 96-well microplate and treated with the indicated doses of EGCG for 24 hours. After the treatment, the cells in each well were washed with 200 μl of phosphate-buffered saline (PBS), incubated with 100 μl of 2% MTT in a solution of 0.05 M Tris, 0.5 mM MgCl2, 2.5 mM CoCl2, and 0.25 M disodiumn succinate as substrate (Sigma) at 37° C. for 30 minutes. Cells were fixed in situ by the addition of 100 μl of 4% formalin in 0.2 M Tris (pH 7.7), and after a 5 minute incubation at room temperature liquid was removed and the wells were allowed to dry. Each well was rinsed with 200 μl water and cells were solubilized by the addition of 100 μl of 6.35% 0.1 N NaOH in DMSO. The colored formazan product was measured by a Thermo MAX micro plate reader (Molecular Devices Corp., Sunnyvale, Calif.) at a wavelength of 562 nm. […]
This method directly detects the activity of mitochondrial succinate dehydrogenase (SDH). […] Solubilized colored formazan product was measured using a Thermo MAX microplate reader (Molecular Devices Corp., Sunnyvale, Calif.) at a wavelength of 562 nm.

[1] = system: aged normal human primary epidermal keratinocytes; assay: MTT assay (SDH activity), aged keratinocytes; type: cell-based
Experimental: Culturing normal human epithelial cells. The pooled normal human primary epidermal keratinocytes were purchased from Cambrex (Baltimore, Md.) and sub-cultured in the specific growth media provided by the manufacturer (KGM-2). […] Exponentially growing keratinocytes were treated and harvested in their early passages (2-3 passages).

p21/WAF1 = assay: Apoptosis macroarray, p21/WAF1 mRNA in NHEK; type: cell-based, human; conditions: 100 μM EGCG
Experimental: as §1
Normal human epidermal keratinocytes (NHEK; Cambrex), and oral squamous cell carcinoma (OSC2) cells, originally from gingival tissue, were compared. Exponentially growing cells were exposed to 50 or 100 μM EGCG for 0 hours, 2 hours, 6 hours or 24 hours. Cells were harvested for total RNA, which was examined by apoptosis macroarrays (Sigma Genosys), followed by phosphorimagery and data analysis (GeneSpring). Protein production of expressed genes was confirmed by Western blotting of whole cell lysates.

[2] = system: normal human primary epidermal keratinocytes; assay: Immunocytochemistry of differentiation markers in keratinocytes; type: cell-based; conditions: 50-100 μM EGCG, 24 hours
Experimental: Immunocytochemistry. Normal human keratinocytes were seeded in 8-well chamber slides (Nagle Nunc International, Naperville, Ill.) 12 hours prior to EGCG treatment. At the end of a 24-hour treatment, the slides were washed with PBS and fixed in a cold 4% paraformaldehyde solution for 10 minutes. […] The primary antibodies, rabbit-anti-human p57 polyclonal antibody C-19, rabbit anti-human keratin 1, and filaggrin antibodies were applied for 1 hour at 37° C. at the dilutions recommended by the manufacturers. The streptavidin detection technique (Biogenex, USA) was used with 3-amino-9-ethylcarbazole as chromogen. Negative control sections consisted of tissues treated with 1% diluted normal goat serum instead of primary antibody. Mayer's hematoxylin was used as a counter-stain.

[3] = system: aged normal human primary epidermal keratinocytes; assay: BrdU incorporation assay, aged keratinocytes; type: cell-based; conditions: EGCG 15-50 μM, 15-day and 20-day keratinocytes
Experimental: Culturing normal human epithelial cells. The pooled normal human primary epidermal keratinocytes were purchased from Cambrex (Baltimore, Md.) and sub-cultured in the specific growth media provided by the manufacturer (KGM-2). […] Exponentially growing keratinocytes were treated and harvested in their early passages (2-3 passages). […] Analysis of DNA synthesis using the BrdU incorporation method. The BrdU cell proliferation kit was purchased from Oncogene Research Products (Boston, Mass.). […] Experiments were repeated three times in triplicate for each experiment.

`O=C(O[C@@H]1Cc2c(O)cc(O)cc2O[C@@H]1c1cc(O)c(O)c(O)c1)c1cc(O)c(O)c(O)c1` [EGCG, (−)-epigallocatechin-3-gallate] was tested, and the Apaf-1 levels (Apaf-1) was “stable basal levels of Apaf-1”, the “production of immunoreactive caspase 14 increased” value (caspase 14; 30 μM EGCG (Example 10)) was 5 fold and the “increase in caspase 14 protein” value (caspase 14; 30 μM EGCG, 48 hours) was 26 fold. The “increase in caspase 14 protein” value (caspase 14; 100 μM EGCG, 24 hours) was 2 fold, the “increase in caspase 14 protein” value (caspase 14; 100 μM EGCG, 48 hours) was 5 folds and the “increase in caspase 14 protein” value (caspase 14; EGCG at or below 50 μM, 24 hours) was > 5 fold. The SDH activities (OSC-2 cells) was “decreased”, the “SDH activity and BrdU incorporation” value ([1]; EGCG concentrations higher than 100 μM) was “consistently induced both SDH activity and BrdU incorporation” and the “activation of succinate dehydrogenase (SDH), MTT assay” value ([1]; keratinocytes 25 days in culture, 24 h treatment) was “up to 37 fold”. The “p21 mRNA level, of untreated control” value (p21/WAF1; 2 hours) was 70.3%, the “p21 mRNA level, of untreated control” value (p21/WAF1; 6 hours) was 50.4% and the “p21 mRNA level, of control” value (p21/WAF1; 24 hours) was 32.7%. The “differentiation (p57/KIP2, keratin 1, filaggrin)” value [2] was “underwent differentiation in 24 hours” and the BrdU incorporation [3] was “slight negative impact on BrdU incorporation”.
